How the values were obtained:
[1] = tested on: Colon cancer HCT116 cells; assay: BrdU proliferation assay, HCT116; format: cell-based, human; details: 48 h
Description: (§1) For BrdU assays, 1×10^4 of indicated cells were plated per well into a 96-well plate. After 24 h, cells were treated with the indicated inhibitors for 48 h. Three independent experiments were plated with six replicates per each condition. Cells were treated with […] BrdU for 2 h. BrdU incorporation into newly synthesized DNA was measured using a cell proliferation colorimetric immunoassay kit according to the manufacturer's instructions (Roche, Switzerland). Results are expressed as mean±S.D. Results are represented as percentage of positive cells (mean±S.D) of three independent experiments.

[2] = tested on: mouse-cryopreserved hepatocytes; assay: Hepatocyte stability, mouse; format: in vitro ADME; details: 3 μM
Description: (§2) Test compound (final substrate concentration 3 μM; final DMSO concentration 0.25%) were pre-incubated at 37° C., prior to the addition of a suspension of cryopreserved hepatocytes (final cell density 0.5×10^6 viable cells/mL in Williams E media supplemented with 2 mM L glutamine and 25 mM HEPES) to initiate the reaction. The reactions were stopped with acetonitrile containing internal standard at the appropriate time points ([…]). The termination plates were centrifuged at 2500 rpm at 4° C. for 30 minute to precipitate the protein. Following the hepatocyte stability assays, the samples were utilized for metabolite profiling. Hepatocyte stability in mouse and human was performed by using the incubation of tested compound (3 μM) with cryopreserved hepatocytes in suspension. Samples were removed at 6 time points over the course of a 60 min experiment and remaining test compound at each time point was analysed by using LC-MS/MS. Then, data was analysed and an intrinsic clearance (CLint) with standard error and half-life (t½) reported.

[3] = tested on: LoVo colon tumour cell line; assay: MTT cell viability assay, LoVo; format: cell-based; details: increasing range of concentrations
Description: (§3) For cytotoxicity assays, 1×10^4 cells were seeded per well into a 96-well plate. After 24 h cells were treated with the indicated inhibitors for 72 h and a MTT colorimetric cell viability assay was performed following manufacturer's instructions (Sigma Aldrich, St Louis, Mo.). Absorbance was measured at 570 and 630 nm using a Multiskan Plus Reader (Nanoquant Infinite M200 Tecan Trading AG, Switzerland). Dose-response curves were designed with Graph Pad Prism Software and the half-maximal inhibitory concentration (IC50) values were calculated. Represented data are the mean±SEM of at least three independent experiments with six replicates per condition.

[4] = tested on: normal epithelial MDCK cell line; assay: MTT cell viability assay, MDCK; format: cell-based; details: compared with Hakai-MDCK
Description: as §3

[5] = tested on: Hakai-MDCK cell lines (clone 4 and clone 11); assay: MTT cell viability assay, Hakai-MDCK; format: cell-based; details: Hakai-MDCK clone 4 and clone 11, compared with MDCK
Description: as §3

HT-29 cells = assay: Western blotting of EMT markers, HT-29; format: cell-based, human; details: HT-29; 48 h
Description: For western blot analysis, cells were treated with the indicated inhibitors for 48 h and the whole cell extracts were obtained as described previously. Twenty micrograms of lysates were resolved on a 10% polyacrilamide SDS-PAGE followed by western blot analysis performed as previously described. For immunofluorescence assays cells were grown for 24 h on glass coverslips and treated with the indicated inhibitors for 48 h. Cells were fixed with 4% PFA for 15 min, permeabilized with 0.5% […] and incubated with E-cadherin antibody for 2 h. Coverslips were incubated with fluorescein-tagged secondary antibody (Dakopatts, Sweden) for […]. Finally coverslips were mounted with ProLong Gold antifade reagent (LifeTech, UK) and images were taken in epifluorescence microscope (Olympus) using 40× objective. Immunofluorescence of E-cadherin and DNA content analysis for FIGS. 22-23 were performed culturing of HT-29 human colorectal adenocarcinoma cell line in 384-well plates with densities of 3,000 cells per well in a total volume of 25 μl. After the completion of the staining, four images (2×2 array) of each well were taken with Vala Sciences' SIM™ with a 20× objective. Each image was acquired as a SIM Synthetic Focus with a z-stack range of 6 μm with 1 μm steps. The SIM Synthetic Focus feature will compile a “best focus” images from multiple images. One set of SIM Synthetic Focus images were taken in the DAPI channel for Hoechst 33342 staining, and another set of images were taken in the FITC channel for anti-E-cadherin-AlexaFluor488 labeling and analysed by Structured Illumination Microscopy (SIM™) platform to image the cells and Vala's CyteSeer® Cell-Cell Junction Algorithm to quantify the degree of expression and intracellular location of E-cadherin Vala's CyteSeer® Software can also measure relative DNA content by analyzing Total Integrated Intensity (TII) of the Nuclear Image (Ni) on the Nuclear Mask (Nm). This analysis was performed by Vala Science. Twenty compounds from were assayed in a “blinded” manner, at 2 test concentrations in 6 replicate wells for first assay and 3 replicate for second assay.

LoVo cells [6] = assay: Western blotting of EMT markers, LoVo; format: cell-based; details: 48 h
Description: (§4) For western blot analysis, cells were treated with the indicated inhibitors for 48 h and the whole cell extracts were obtained as described previously. Twenty micrograms of lysates were resolved on a 10% polyacrilamide SDS-PAGE followed by western blot analysis performed as previously described. For immunofluorescence assays cells were grown for 24 h on glass coverslips and treated with the indicated inhibitors for 48 h. Cells were fixed with 4% PFA for 15 min, permeabilized with 0.5% […] and incubated with E-cadherin antibody for 2 h. Coverslips were incubated with fluorescein-tagged secondary antibody (Dakopatts, Sweden) for […]. Finally coverslips were mounted with ProLong Gold antifade reagent (LifeTech, UK) and images were taken in epifluorescence microscope (Olympus) using 40× objective. […] One set of SIM Synthetic Focus images were taken in the DAPI channel for Hoechst 33342 staining, and another set of images were taken in the FITC channel for anti-E-cadherin-AlexaFluor488 labeling and analysed by Structured Illumination Microscopy (SIM™) platform to image the cells and Vala's CyteSeer® Cell-Cell Junction Algorithm to quantify the degree of expression and intracellular location of E-cadherin Vala's CyteSeer® Software can also measure relative DNA content by analyzing Total Integrated Intensity (TII) of the Nuclear Image (Ni) on the Nuclear Mask (Nm). […]

LoVo cells [7] = assay: Immunofluorescence of E-cadherin, LoVo; format: cell-based; details: 48 h, vs DMSO
Description: as §4

[8] = tested on: non-transformed epithelial MDCK cells; assay: BrdU proliferation assay, MDCK; format: cell-based; details: 48 h
Description: as §1

[9] = tested on: prostate cancer PC-3 cells; assay: BrdU proliferation assay, PC-3; format: cell-based, human; details: 48 h
Description: as §1

LoVo cells [10] = assay: Invasion assay, LoVo; format: cell-based; details: treated 48 h
Description: (§5) For invasion assays, cells were treated with Hakin-1 or DMSO as vehicle for 48 h using 1% FBS during the last 24 hours. 3×10^5 MDCK, MDCK-Hakai or LoVo cells were seeded in a cell invasion chamber (Cell invasion assay kit, Chemicon International) containing medium with 2% FBS. After 72 hours for MDCK and MDCK-Hakai Invasive and 16 h for LoVo cells, invasive cells invaded that reach the lower chamber containing 30% FBS were fixed and stained with crystal violet (Sigma Aldrich, St Louis, Mo.) following the manufacturer's specifications. For migration assays, HT29 cells were cultured with Hakin-1 or DMSO as vehicle for 48 h, using medium without serum the last 24 h. In the cell migration chamber were seeded 3×10^5 HT29 cells (Cell migration kit, Millipore, Bedford, Mass.) containing medium without serum. After 16 h, migrated cells in the lower chamber containing serum with 30% FBS were stained with crystal violet and counted following the manufacturer's specifications. For both invasion and migration assays cells were counted in five fields photographed with an Olympus microscope using a 20× objective, experiments were performed in triplicates for each condition and the assays were repeated at least three times. Results are expressed as mean±SD.

Hakai-MDCK cells = assay: Invasion assay, Hakai-MDCK; format: cell-based; details: treated 48 h
Description: as §5

[11] = Hepatocyte stability, mouse; format: in vitro ADME; details: cryopreserved mouse hepatocytes in suspension, read-out: half-life (T½)
Description: as §2

tumour culture cells = assay: In vitro antitumor effect (summary of cell assays); format: cell-based

| Compound | cell proliferation (BrdU) [1] | compound remaining after 60 min [2] | cytotoxicity (cell viability, MTT) [3] | sensitivity to treatment (cell viability, MTT) [4] | sensitivity to treatment (cell viability, MTT) [5] | Cortactin expression levels (western blotting) (HT-29 cells) | E-cadherin levels (western blotting) (HT-29 cells) | Vimentin mesenchymal marker (western blotting) (HT-29 cells) | EMT markers (western blotting) (LoVo cells [6]) | E-cadherin levels at cell-cell contacts (immunofluorescence) (LoVo cells [7]) | cell proliferation (BrdU) [8] | cell proliferation (BrdU) [9] | cell invasion (LoVo cells [10]) | cell invasion (Hakai-MDCK cells) | half-life at 3 μM [11] [min] | concentration at which the in vitro antitumor effect was observed (tumour culture cells) [µM] |
| --- | --- | --- | --- | --- | --- | --- | --- | --- | --- | --- | --- | --- | --- | --- | --- | --- |
| O=C(O)c1ccc(-n2nnnc2SCC(O)c2ccc([N+](=O)[O-])cc2)cc1 (stereo not shown) [MKH1] | inhibit cell proliferation | 95%-100% |  |  |  |  |  |  |  |  |  |  |  |  |  |  |
| O=C(O)c1ccc(-n2nnnc2SCC(=O)c2ccc([N+](=O)[O-])cc2)cc1 [Hakin-1, 4-(5-[2-(4-nitrophenyl)-2-oxoethyl]thiol-1H-tetrazol-1-yl)benzoic acid] |  |  | important inhibitory response | more resistant | more sensitive | increase expression levels | increase E-cadherin levels | reduced | confirmed these results | significant increase E-cadherin levels at cell-cell contacts | no effect was detected | inhibited cell proliferation | strongly reduced cell invasion | decreased cell invasion | 5.92 | 100 to 200 |
